This note sets out measurements from US11446287B2, “Compounds and methods for EP300 or CBP modulation and indications therefor” (Opna Immuno-Oncology SA, priority 2019, dated 2022).

This assay addresses T1, Recombinant human CBP containing the bromodomain (CBP-BD (1043-1159)) (Homo sapiens, UniProt Q92793).
T1 construct: Recombinant human CBP bromodomain (CBP-BD (1043-1159)); made in house; host or cells: E. coli BL21-CodonPlus (DE3), modified pET vector
Description: CBP Alphascreen binding assay. As to conditions: read-out: CREBBP (CBP) IC50. On the procedure:
CBP Alphascreen Binding Assay
Binding of compounds of Formula (I) with CBP was assessed using Alphascreen™ binding assay. The inhibition of the interaction between the CBP bromodomain and its acetylated target protein was measured quantitatively using recombinant CBP, an acetylated Histone 3 peptide and AlphaScreen™ technology. In absence of inhibition of the CBP protein bound to AlphaScreen™ nickel chelate acceptor beads can interact with the acetylated Histone 3 peptide which was immobilized by the AlphaScreen™ Streptavidin coated beads. This interaction brings donor and acceptor beads in proximity. The close proximity allows the singlet oxygen produced by laser excitation of the donor beads to reach the acceptor beads and generate a luminescence signal. CBP inhibitors result in a decrease in the proximity signal through an inhibition of the CBP—acetylated peptide interaction.
Recombinant human CBP containing the bromodomain (CBP-BD (1043-1159)) was prepared and purified as described in protein expression and purification session. The peptide was human Histone H345-64K56Ac-Biotin (Anaspec CA, USA).
Protocol for CBP assay: All components are prepared in buffer composed of 50 mM HEPES pH 7.5, 50 mM NaCl, 0.01% BSA, 0.01% Triton X-100, 2 mM DTT. Test compounds and DMSO vehicle are diluted 1:50 in buffer and a 4 μL volume was transferred to an Alphaplate. 5.5 μL of CBP protein and 5.5 μL of peptide are added to wells containing 4 μL of various concentrations of test compounds of Formula (I) or DMSO vehicle in an Alphaplate (PerkinElmer GA, USA) and incubated for 1 hour at room temperature. 5 μL donor and acceptor bead mixture was then added with final concentrations of 7.5 μg/ml. 60 minutes after bead addition, Alpha signal was read on the Envision spectrometer (λEx 680 nm, λEm 520-620 nm). Final concentrations of bromodomain proteins and peptide are as shown below.
All data were normalized to the mean of 16 high and 16 low control wells on each plate. A four parameter curve fit of the following formula was then applied: Y=A+((B−A)/(1+((C/x)^D))) Where ‘A’ is the minimum, ‘B’ is the maximum, ‘C’ is the IC50 and ‘D’ is the Hill slope. Protein Expression and Purification
Recombinant human CBP bromodomain (CBP-BD (1043-1159)) was expressed in E. coli cells (in a modified pET vector) with an N-terminal six-His tag and purified using a combination of both IMAC (Ni-affinity) and size exclusion chromatography steps.
Recombinant CBP protein was expressed using the E. coli strain BL21-CodonPlus (DE3) (Agilent Technologies CA, USA). Cells were grown in Terrific Broth (TB) media to an OD600 of 0.92 at 37° C. at which temperature was reduced to 20° C., protein was induced with 1.0 mM isopropyl-β-D-thiogalactopyranoside (“IPTG”) for 20 hours and harvested by centrifugation at 8500×g for 20 minutes. Cells were re-suspended in 0.1M K2PO4 pH 8.0, 250 mM NaCl, 10% Glycerol, 0.75% NP-40, 25 mM Imidazole, with 0.2 mg/ml Lysozyme, 0.2 mM phenylmethanesulfonyl fluoride (“PMSF”), […] (“BME”), 25 μg/ml DNase I, incubated on ice for 30 minutes and lysed with a cell disruptor (MicroFluidics MA, USA). The lysate was clarified by centrifugation at 20,000×g for 1 hour. The protein was captured with Ni-NTA resin (Life Technologies, USA). Contaminating proteins were washed off with 40 mM HEPES pH 7.5, 500 mM NaCl, 5% Glycerol, 5 mM Imidazole, and 5 mM BME. Following 3× wash steps, protein was eluted using 400 mM Imidazole in 40 mM HEPES pH 7.5, 400 mM NaCl, and 5 mM BME. The protein was further purified using a size exclusion column (26/600 Superdex 200, GE Biosciences NJ, USA) in 40 mM HEPES pH 7.5, 250 mM NaCl, 5 mM BME. The protein was aliquoted and flash-frozen in liquid Nitrogen.

T1 sequence (Q92793 1081-1197): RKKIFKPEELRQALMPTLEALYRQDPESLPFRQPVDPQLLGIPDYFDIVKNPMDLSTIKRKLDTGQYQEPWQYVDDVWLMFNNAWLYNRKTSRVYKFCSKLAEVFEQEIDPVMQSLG

Take `CCOc1cc(C(=O)O)ccc1-c1cn([C@@H](C)c2ccccn2)c2ncc(-c3c(C)noc3C)cc12` [P-0114, (S)-4-(5-(3,5-dimethylisoxazol-4-yl)-1-(1-(pyridin-2-yl)ethyl)-1H-pyrrolo[2,3-b]pyridin-3-yl)-3-ethoxybenzoic acid]: the IC50 – broadly, the concentration at which inhibition is half-maximal – was in the range of 0.0001 to 1 µM.
With `Cc1noc(C)c1-c1cnc2c(c1)c(-c1ccc(C(=O)O)cc1OCC(F)(F)F)cn2[C@@H](C)c1ccccn1` [P-0115, (S)-4-(5-(3,5-dimethylisoxazol-4-yl)-1-(1-(pyridin-2-yl)ethyl)-1H-pyrrolo[2,3-b]pyridin-3-yl)-3-(2,2,2-trifluoroethoxy)benzoic acid], the IC50 was 0.0001 to 1 µM.
With `Cc1noc(C)c1-c1cnc2c(c1)c(-c1ccc(C(=O)O)cc1C(F)(F)F)cn2[C@@H](C)c1ccccn1` [P-0116, (S)-4-(5-(3,5-dimethylisoxazol-4-yl)-1-(1-(pyridin-2-yl)ethyl)-1H-pyrrolo[2,3-b]pyridin-3-yl)-3-(trifluoromethyl)benzoic acid], the IC50 lay within 0.0001 to 1 µM.
In the case of `CCCOc1cc(C(=O)O)cc(OCCC)c1-c1cn([C@@H](C)c2ccccn2)c2ncc(-c3c(C)noc3C)cc12` [P-0117, (S)-4-(5-(3,5-dimethylisoxazol-4-yl)-1-(1-(pyridin-2-yl)ethyl)-1H-pyrrolo[2,3-b]pyridin-3-yl)-3,5-dipropoxybenzoic acid] it was 0.0001 to 1 µM; in that of `Cc1noc(C)c1-c1cnc2c(c1)c(-c1c(OC(C)C)cc(C(=O)O)cc1OC(C)C)cn2[C@@H](C)c1ccccn1` [P-0118, (S)-4-(5-(3,5-dimethylisoxazol-4-yl)-1-(1-(pyridin-2-yl)ethyl)-1H-pyrrolo[2,3-b]pyridin-3-yl)-3,5-diisopropoxybenzoic acid], 0.0001 to 1 µM; in that of `COc1cc(C(=O)O)cc(OC)c1-c1cn(C(C)c2ccccc2)c2cc(-c3c(C)noc3C)cnc12` (centres unmarked) [P-0119, 4-(6-(3,5-dimethylisoxazol-4-yl)-1-(1-phenylethyl)-1H-pyrrolo[3,2-b]pyridin-3-yl)-3,5-dimethoxybenzoic acid], 0.0001 to 1 µM.
In the case of `Cc1noc(C)c1-c1cnc2c(-c3ccccc3C(=O)O)cn(C(C)c3ccccc3)c2c1` (centres unmarked) [P-0120, 2-(6-(3,5-dimethylisoxazol-4-yl)-1-(1-phenylethyl)-1H-pyrrolo[3,2-b]pyridin-3-yl)benzoic acid], the IC50 was 1 to 8 µM.
In the case of `Cc1noc(C)c1-c1cnc2c(C(=O)C3CCC3)cn(-c3c(Cl)cc(C(=O)O)cc3Cl)c2c1` [P-0121, 3,5-dichloro-4-(3-(cyclobutanecarbonyl)-6-(3,5-dimethylisoxazol-4-yl)-1H-pyrrolo[3,2-b]pyridin-1-yl)benzoic acid] it was 0.0001 to 1 µM; in that of `Cc1noc(C)c1-c1cnc2c(c1)c(-c1cccc(C(=O)O)n1)cn2C(C)c1ccccn1` (centres unmarked) [P-0122, 6-(5-(3,5-dimethylisoxazol-4-yl)-1-(1-(pyridin-2-yl)ethyl)-1H-pyrrolo[2,3-b]pyridin-3-yl)picolinic acid], 1 to 8 µM; in that of `Cc1noc(C)c1-c1cnc2c(c1)c(-c1ccc(C(=O)O)cn1)cn2C(C)c1ccccn1` (centres unmarked) [P-0123, 6-(5-(3,5-dimethylisoxazol-4-yl)-1-(1-(pyridin-2-yl)ethyl)-1H-pyrrolo[2,3-b]pyridin-3-yl)nicotinic acid], 0.0001 to 1 µM.
In the case of `Cc1noc(C)c1-c1cnc2c(c1)c(-c1cc(C(=O)O)ccn1)cn2C(C)c1ccccn1` (centres unmarked) [P-0124, 2-(5-(3,5-dimethylisoxazol-4-yl)-1-(1-(pyridin-2-yl)ethyl)-1H-pyrrolo[2,3-b]pyridin-3-yl)isonicotinic acid] it was 0.0001 to 1 µM; in that of `Cc1noc(C)c1-c1cnc2c(c1)c(-c1ccc(F)c(C(=O)O)c1F)cn2[C@@H](C)c1ccccn1` [P-0125, (S)-3-(5-(3,5-dimethylisoxazol-4-yl)-1-(1-(pyridin-2-yl)ethyl)-1H-pyrrolo[2,3-b]pyridin-3-yl)-2,6-difluorobenzoic acid], 0.0001 to 1 µM.
As to `Cc1noc(C)c1-c1cnc2c(c1)c(-c1ccnc(C(=O)O)n1)cn2C(C)c1ccccn1` (centres unmarked) [P-0126, 4-(5-(3,5-dimethylisoxazol-4-yl)-1-(1-(pyridin-2-yl)ethyl)-1H-pyrrolo[2,3-b]pyridin-3-yl)pyrimidine-2-carboxylic acid], the IC50 is 0.0001 to 1 µM.
Regarding `CCCOc1cc(C(=O)O)cc(OCCC)c1-n1cc(CC2CCC2)c2ncc(-c3c(C)noc3C)cc21` [P-0127, 4-(3-(cyclobutylmethyl)-6-(3,5-dimethylisoxazol-4-yl)-1H-pyrrolo[3,2-b]pyridin-1-yl)-3,5-dipropoxybenzoic acid], the IC50 is 0.0001 to 1 µM.
Consider `Cc1noc(C)c1-c1cnc2c(Cc3cccc(Cl)c3)cn(-c3c(Cl)cc(C(=O)O)cc3Cl)c2c1` [P-0128, 3,5-dichloro-4-(3-(3-chlorobenzyl)-6-(3,5-dimethylisoxazol-4-yl)-1H-pyrrolo[3,2-b]pyridin-1-yl)benzoic acid], for which the IC50 is 0.0001 to 1 µM.
The result for `Cc1noc(C)c1-c1cnc2c(C(=O)c3cccc(OC(F)F)c3)cn(-c3c(Cl)cc(C(=O)O)cc3Cl)c2c1` [P-0129, 3,5-dichloro-4-(3-(3-(difluoromethoxy)benzoyl)-6-(3,5-dimethylisoxazol-4-yl)-1H-pyrrolo[3,2-b]pyridin-1-yl)benzoic acid] reads 0.0001 to 1 µM; that for `Cc1noc(C)c1-c1cnc2c(CC3CCC3)cn(-c3ccc([N+](=O)[O-])cc3F)c2c1` [P-0130, 4-(3-(cyclobutylmethyl)-1-(2-fluoro-4-nitrophenyl)-1H-pyrrolo[3,2-b]pyridin-6-yl)-3,5-dimethylisoxazole], 8 to 1000 µM.
In the case of `Cc1noc(C)c1-c1cnc2c(Cc3ccccc3Cl)cn(-c3c(Cl)cc(C(=O)O)cc3Cl)c2c1` [P-0131, 3,5-dichloro-4-(3-(2-chlorobenzyl)-6-(3,5-dimethylisoxazol-4-yl)-1H-pyrrolo[3,2-b]pyridin-1-yl)benzoic acid] it was 0.0001 to 1 µM; in that of `Cc1noc(C)c1-c1cnc2c(Cc3cccc(OCc4ccccc4)c3)cn(-c3c(Cl)cc(C(=O)O)cc3Cl)c2c1` [P-0132, 4-(3-(3-(benzyloxy)benzyl)-6-(3,5-dimethylisoxazol-4-yl)-1H-pyrrolo[3,2-b]pyridin-1-yl)-3,5-dichlorobenzoic acid], 0.0001 to 1 µM.
In the case of `Cc1noc(C)c1-c1cnc2c(C(=O)c3cccc(OCc4ccccc4)c3)cn(-c3c(Cl)cc(C(=O)O)cc3Cl)c2c1` [P-0133, 4-(3-(3-(benzyloxy)benzoyl)-6-(3,5-dimethylisoxazol-4-yl)-1H-pyrrolo[3,2-b]pyridin-1-yl)-3,5-dichlorobenzoic acid] it was 0.0001 to 1 µM; in that of `COc1ccc(-n2cc(CC3CCC3)c3ncc(-c4c(C)noc4C)cc32)cn1` [P-0134, 4-(3-(cyclobutylmethyl)-1-(6-methoxypyridin-3-yl)-1H-pyrrolo[3,2-b]pyridin-6-yl)-3,5-dimethylisoxazole], 1 to 8 µM.
With `COc1cc(C(=O)O)cc(OCc2ccccc2)c1-c1cn([C@@H](C)c2ccccn2)c2ncc(-c3c(C)noc3C)cc12` [P-0135, (S)-3-(benzyloxy)-4-(5-(3,5-dimethylisoxazol-4-yl)-1-(1-(pyridin-2-yl)ethyl)-1H-pyrrolo[2,3-b]pyridin-3-yl)-5-methoxybenzoic acid], the IC50 is 0.0001 to 1 µM.
The result for `COc1c(C(=O)O)cccc1-c1cn(C(C)c2ccccc2)c2cc(-c3c(C)noc3C)cnc12` (centres unmarked) [P-0136, 3-(6-(3,5-dimethylisoxazol-4-yl)-1-(1-phenylethyl)-1H-pyrrolo[3,2-b]pyridin-3-yl)-2-methoxybenzoic acid] reads 0.0001 to 1 µM.
